Test results: patent US20200031820A1, “3-CARBOXYLIC ACID PYRROLES AS NRF2 REGULATORS” (GLSXOSMITHKLINE INTELLECTUAL PROPERTY DEVELOPMENT LIMITED, priority 2016, published 2020)

Experiments:
[1] = tested on: NQO1 specific enzyme activity in BEAS-2B cells (marker for NRF2 activation); experiment: Beas2B NQO1 MTT Assay; assay type: cell-based; settings: Homo sapiens, NQO1 specific activity induction, 48 hours with compound
Excerpt: NAD(P)H:quinone oxidoreductase 1 (NQO1), also called DT diaphorase, is a homodimeric FAD-containing enzyme that catalyses obligatory NAD(P)H-dependent two-electron reductions of quinones and protects cells against the toxic and neoplastic effects of free radicals and reactive oxygen species arising from one-electron reductions. The transcription of NQO1 is finely regulated by NRF2, and thus NQO1 activity is a good marker for NRF2 activation. On day one, frozen BEAS-2B cells (ATCC) were thawed in a water bath, counted, and re-suspended at a concentration of 250,000 cells/mL. Fifty microliters of cells were plated in 384 well black clear-bottomed plates. Plates were incubated at 37° C., 5% CO2 overnight. On day two, plates were centrifuged and 50 nL of compound or controls were added to the cells. Plates were then incubated at 37° C., 5% CO2 for 48 hours. On day four, medium was aspirated from the plate and crude cell lysates were made by adding 13 uL of 1× Cell Signaling Technologies lysis buffer with 1 Complete, Mini, EDTA-free Protease Inhibitor Tablet (Roche) for each 10 mL of lysis buffer. After lysis plates were incubated for 20 minutes at room temperature. Two microliters of lysate were removed for use in Cell Titer Glo assay (Promega) and MTT cocktail was prepared (Prochaska et. al. 1998) for measurement of NQO1 activity. Fifty microliters of MTT cocktail was added to each well, plate was centrifuged, and analysed on an Envision plate reader (Perkin Elmer) using Absorbance 570 nm label for 30 minutes. Product formation was measured kinetically and the pEC50 of NQO1 specific activity induction was calculated by plotting the change in absorbance (Delta OD/min) versus the log of compound concentration followed by 3-parameter fitting.
EC50s <1 nM (+++++), EC50s 10 nM-1 nM (++++), EC50s 10-100 nM (+++), EC50s 100 nM-1 μM (++), EC50s 1-10 μM (+), EC50s >10 μM (−), or were not determined (ND).

[2] = target: T1, full length NRF2 protein and full length Keap1 protein (Homo sapiens, UniProt Q14145); experiment: NRF2-Keap1 TR-FRET Low Protein Assay; assay type: binding; settings: Keap1 FlagHis, biotin-NRF2
T1 construct: full length NRF2 protein and full length Keap1 protein; His
Excerpt: NRF2-Keap1 TR-FRET Low Protein Assay In the NRF2-Keap1 TR-FRET (time-resolved fluorescence resonance energy transfer) low protein assay, full length NRF2 protein and full length Keap1 protein (Keap1 exists a dimer) are used. The assay detects a compound's ability to displace the binding of Keap1 FlagHis with biotinylated Avi-NRF2 protein. Biotin-NRF2 binds to streptavidin-europium (a component of the detection mix) and Keap1 FlagHis is recognized by anti-Flag APC (allophycocyanin) antibody (also a component of the detection mix). If binding occurs between the two proteins, there will be an energy transfer from the Eu+3 (donor) at 615 nm to the APC (acceptor) at 665 nm. A potential NRF2 inhibitor will cause a reduction in the TR-FRET signal by interfering with the binding of Keap1 to NRF2.
Ten nanoliters of 100× compound dose response curves (serial 3-fold dilutions) in DMSO were stamped using an Echo liquid handling system (Labcyte) into 384-well, low volume, black assay plates (Greiner, #784076), with DMSO in columns 6 and 18. An additional 90 nl DMSO was added to each well, to bring the total volume to 100 nl per well. The top concentration of compound was located in columns 1 and 13, with the serial dilutions going across the row. All reagents were diluted in assay buffer (50 mM Tris, pH 8.0, 5 mM MgCl2, 100 mM NaCl, 0.005% BSA, 1 mM DTT, and 2 mM CHAPS. The BSA, DTT, and CHAPS were added to the assay buffer on the day of assay. Using a Multidrop Combi (Thermo Electron Corporation) equipped with a metal tip dispenser, 5 ul of 1.25 nM Keap1 FlagHis protein was added to all wells of the compound plate, with the exception of the wells in column 18. Wells in column 18 received 5 ul of assay buffer instead. Plates were centrifuged at 500 rpm for 1 minute, covered with a plate lid, and incubated at 37° C. for 2.25 hours. Plates were then removed from the incubator and allowed to cool to RT for 15 minutes. Five microliters of 2.5 nM biotin-NRF2 protein was then added to all wells of the plates and the plates were spun at 500 rpm for 1 minute, followed by incubating at 4° C. for 1.25 hours. The plates were then allowed to warm to RT for 15 minutes, followed by the addition of 10 ul of detection mix (1 nM Streptavidin Eu+ W1024 and 5 ug/ml mouse anti-DYKDDDDK IgG conjugated to SureLight APC antibody; both from Columbia Biosciences) to all wells. Plates were spun at 500 rpm for 1 minute, incubated for 1 hour at RT, and read on an Envision plate reader using a 320 nm excitation filter and 615 nm and 665 nm emission filters. Compound response (% inhibition) and potency (pIC50) were calculated based on the ratio of the two emissions (665 nm/615 nm) and then the transformed data is normalized against controls in the assay (control 1=1% DMSO in the presence of NRF2 and Keap1 protein and control 2=1% DMSO in the presence of only the NRF2 protein). Data analysis was handled using the software package Abase XE (Surrey, United Kingdom). The % inhibition values were calculated from the ratio (transformed) data by the equation:
100−(100*(compound response−average control 2)/(average control 1−average control2)).
For calculation of pIC50s, Abase XE used a four-parameter equation.
IC50s<10 nM (+++++), IC50s 10-100 nM (++++), IC50s 100 nM-1 uM (+++), IC50s 1-10 uM (++). & IC50s 10 uM-100 uM (+), IC50s >100 uM (−), or were not determined (ND).

T1 sequence (Q14145 whole entry): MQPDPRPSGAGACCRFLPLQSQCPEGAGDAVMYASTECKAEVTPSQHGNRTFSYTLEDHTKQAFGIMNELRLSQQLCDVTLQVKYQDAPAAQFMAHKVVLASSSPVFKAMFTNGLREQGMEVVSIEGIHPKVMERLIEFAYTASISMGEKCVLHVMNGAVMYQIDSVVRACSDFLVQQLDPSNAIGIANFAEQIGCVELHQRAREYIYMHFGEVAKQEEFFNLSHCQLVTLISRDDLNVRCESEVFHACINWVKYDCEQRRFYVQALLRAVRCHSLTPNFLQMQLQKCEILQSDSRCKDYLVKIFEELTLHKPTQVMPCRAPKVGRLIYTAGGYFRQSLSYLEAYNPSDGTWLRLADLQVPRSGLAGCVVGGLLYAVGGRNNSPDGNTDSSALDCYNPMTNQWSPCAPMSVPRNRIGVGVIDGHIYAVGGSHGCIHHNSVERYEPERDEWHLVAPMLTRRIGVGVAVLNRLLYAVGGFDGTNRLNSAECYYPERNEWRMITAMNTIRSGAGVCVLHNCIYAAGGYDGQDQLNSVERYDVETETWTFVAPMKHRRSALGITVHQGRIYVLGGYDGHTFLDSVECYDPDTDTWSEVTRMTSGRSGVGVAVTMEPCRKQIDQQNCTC

Row | EC50 [2] [µM] | Structure (SMILES) | EC50 [1] [µM]
1 | 0.01 to 0.1 | C[C@H]1Cc2ccc(Br)cc2S(=O)(=O)N(Cc2cccc(-n3ccc(C(=O)O)c3[C@@H]3C[C@H]3c3cn(C)nn3)c2)C1 [Example 8, 1-(3-(((S)-8-bromo-4-methyl-1,1-dioxido-4,5-dihydrobenzo[f][1,2]thiazepin-2(3H)-yl)methyl)phenyl)-2-((1R,2R)-2-(1-methyl-1H-1,2,3-triazol-4-yl)cyclopropyl)-1H-pyrrole-3-carboxylic acid] | 0.001 to 0.01
2 | < 0.01 | CC[C@H]1Cc2ccc(Br)cc2S(=O)(=O)N(Cc2cccc(-n3ccc(C(=O)O)c3[C@@H]3C[C@H]3c3cn(C)nn3)c2)C1 [Example 9, 1-(3-(((S)-8-bromo-4-ethyl-1,1-dioxido-4,5-dihydrobenzo[f][1,2]thiazepin-2(3H)-yl)methyl)phenyl)-2-((1R,2R)-2-(1-methyl-1H-1,2,3-triazol-4-yl)cyclopropyl)-1H-pyrrole-3-carboxylic acid] | < 0.001
3 | 0.1 to 1 | C[C@H](Oc1cccc(-c2cccc(-n3ccc(C(=O)O)c3[C@H]3C[C@@H]3c3cn(C)nn3)c2)c1)C1CCCCC1 [Example 17, 1-(3′-((S)-1-cyclohexylethoxy)-[1,1′-biphenyl]-3-yl)-2-((1S,2S)-2-(1-methyl-1H-1,2,3-triazol-4-yl)cyclopropyl)-1H-pyrrole-3-carboxylic acid] | 0.01 to 0.1
4 | 0.01 to 0.1 | CCC[C@@H]1CCCCN1C(=O)c1cccc(-c2cccc(-n3ccc(C(=O)O)c3[C@@H]3C[C@H]3c3cn(C)nn3)c2)c1Br [Example 22] | 0.01 to 0.1
5 | 0.01 to 0.1 | CCC[C@@H]1CCCCN1C(=O)c1cc(F)cc(-c2cccc(-n3ccc(C(=O)O)c3[C@@H]3C[C@H]3c3cn(C)nn3)c2)c1 [Example 23] | 0.01 to 0.1
6 | 1 to 10 | CCC[C@@H]1CCCCN1C(=O)c1cccc(-c2cccc(-n3ccc(C(=O)O)c3[C@@H]3C[C@H]3c3cn(C)nn3)c2)c1C(F)(F)F [Example 24] | 1 to 10
